Experimental data taken from ChEMBL document CHEMBL1201862, “PubChem BioAssay data set” (2004).
Several values for one entry are separate records, joined by “and”; a condition that tells them apart may be missing. Identical values can stand only once.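 Protocol summary: plate cells (96-well), add compound at 5 concentrations, incubate 48 h, interpolate endpoints linearly. GI50 marks 50% less growth.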 Activity calls are given as the source filed them. Rule as the data show it: active = GI50 up to about 1.1 µM and inactive = higher.

Experiments:
Test in all cases: DTP human tumour cell line panel, 48 h
CAKI-1 = tested on: CAKI-1
COLO 205 = tested on: COLO 205
HCC 2998 = tested on: HCC 2998
HCT-15 = tested on: HCT-15
HOP-92 = tested on: HOP-92
HT-29 = tested on: HT-29
LOX IMVI = tested on: LOX IMVI
MOLT-4 = tested on: MOLT-4
NCI-H522 = tested on: NCI-H522
NCI/ADR-RES = tested on: NCI/ADR-RES
OVCAR-4 = tested on: OVCAR-4
SK-MEL-28 = tested on: SK-MEL-28
U-251 = tested on: U-251
UACC-62 = tested on: UACC-62
DMS-273 = tested on: DMS-273
K562 = tested on: K562
KM-20L2 = tested on: KM-20L2
Malme-3M = tested on: Malme-3M
NCI-H226 = tested on: NCI-H226
SNB-78 = tested on: SNB-78

SMILES	GI50 (CAKI-1)	GI50 (COLO 205)	GI50 (HCC 2998)	GI50 (HCT-15)	GI50 (HOP-92)	GI50 (HT-29)	GI50 (LOX IMVI)	GI50 (MOLT-4)	GI50 (NCI-H522)	GI50 (NCI/ADR-RES)	GI50 (OVCAR-4)	GI50 (SK-MEL-28)	GI50 (U-251)	GI50 (UACC-62)	GI50 (DMS-273)	GI50 (K562)	GI50 (KM-20L2)	GI50 (Malme-3M)	GI50 (NCI-H226)	GI50 (SNB-78)
CCOC1=NC(C(F)(F)F)(C(F)(F)F)N=C(N2CCOCC2)O1	> 100 µM (inactive)	> 100 µM (inactive)	> 100 µM (inactive)	> 100 µM	> 100 µM (inactive)	> 100 µM (inactive)	> 100 µM (inactive)	> 100 µM (inactive)	> 100 µM (inactive)	> 100 µM (inactive)	> 100 µM (inactive)	> 100 µM (inactive)	> 100 µM (inactive)	24 µM (inactive)						
Cc1nc(-c2nc([N+](=O)[O-])c([N+](=O)[O-])[nH]2)cs1	> 100 µM (inactive)	> 100 µM (inactive)	> 100 µM (inactive)		> 100 µM (inactive)	> 100 µM (inactive)	> 100 µM (inactive)	> 100 µM (inactive)	> 100 µM (inactive)		> 100 µM (inactive)	> 100 µM (inactive)	> 100 µM (inactive)	> 100 µM (inactive)	> 100 µM (inactive)	> 100 µM (inactive)	> 100 µM (inactive)	> 100 µM (inactive)	> 100 µM (inactive)	> 100 µM (inactive)
CCOC(=O)c1ncoc1[C@H]1COC(C)(C)O1	> 100 µM (inactive)		> 100 µM (inactive)	> 100 µM		> 100 µM (inactive)	> 100 µM (inactive)	> 100 µM (inactive)	> 100 µM (inactive)		> 100 µM (inactive)		> 100 µM (inactive)	> 100 µM (inactive)	> 100 µM (inactive)	> 100 µM (inactive)	> 100 µM (inactive)	> 100 µM (inactive)	> 100 µM (inactive)	> 100 µM (inactive)
CN(C)CC(CC1=C(CC(CN(C)C)N(C)C)CCC1)N(C)C (centres undefined)	> 100 µM (inactive)	> 100 µM (inactive)	> 100 µM (inactive)	> 100 µM	> 100 µM (inactive)	> 100 µM (inactive)	> 100 µM (inactive)	> 100 µM (inactive)	> 100 µM (inactive)	> 100 µM (inactive)	> 100 µM (inactive)	> 100 µM (inactive)	> 100 µM (inactive)	> 100 µM (inactive)	> 100 µM (inactive)	> 100 µM (inactive)	> 100 µM (inactive)	> 100 µM (inactive)	> 100 µM (inactive)	
CCCCCCCCCCSCC(CO)NC(=O)/C=C/c1c(C)[nH]c(=O)[nH]c1=O (centres undefined)		762 nM (active) and 1.19 µM (inactive)	1.08 µM (active) and 1.17 µM (inactive)		1.54 µM (inactive) and 820 nM (active)	4.02 µM (inactive) and 7.43 µM (inactive)	1.29 µM (inactive) and 1.42 µM (inactive)	1.22 µM (inactive) and 1.44 µM (inactive)	243 nM (active) and 393 nM (active)	> 50 µM (inactive) and > 42.8 µM (inactive)		1.77 µM (inactive) and 1.85 µM (inactive)	532 nM (active) and 355 nM (active)	1.03 µM (active) and 1.17 µM (inactive)		908 nM (active) and 1.12 µM (inactive)	6.46 µM (inactive) and 3.37 µM (inactive)	813 nM (active) and 703 nM (active)		1.71 µM (inactive) and 1.9 µM (inactive)
COc1ccc(C2=N/C(=C\c3ccccc3)C(=O)O2)cc1			75.9 µM (inactive)	52.1 µM	> 100 µM (inactive)	> 100 µM (inactive)		13.3 µM (inactive)		16.7 µM (inactive)	37.1 µM (inactive)	> 100 µM (inactive)	62.7 µM (inactive)			34 µM (inactive)			28.5 µM (inactive)	
COc1cccc2c1C(=O)c1c(O)c3c(c(O)c1C2=O)CC(O)(C(C)=O)CC3O (centres undefined)	4.61 µM (inactive)	3.02 µM (inactive)	7.24 µM (inactive)	9.23 µM	7.11 µM (inactive)	6.04 µM (inactive)	1.63 µM (inactive)	1.98 µM (inactive)	1.03 µM (active)	5.68 µM (inactive)	6.34 µM (inactive)	12.7 µM (inactive)	4.03 µM (inactive)	5.58 µM (inactive)	2.3 µM (inactive)	4.34 µM (inactive)	6.85 µM (inactive)	4.56 µM (inactive)	5.56 µM (inactive)	9.18 µM (inactive)
Nc1ccc(/N=N/c2ccc(/C=C/c3ccc(/N=N/c4ccc(N)c5ccc(S(=O)(=O)O)cc45)cc3S(=O)(=O)O)c(S(=O)(=O)O)c2)c2cc(S(=O)(=O)O)ccc12		> 100 µM (inactive)	> 100 µM (inactive)	> 100 µM	88.1 µM (inactive)	> 100 µM (inactive)	> 100 µM (inactive)	> 100 µM (inactive)	> 100 µM (inactive)	> 100 µM (inactive)	> 100 µM (inactive)	> 100 µM (inactive)	> 100 µM (inactive)	> 100 µM (inactive)	> 88.1 µM (inactive)	> 100 µM (inactive)	> 100 µM (inactive)	> 100 µM (inactive)	> 71.1 µM (inactive)	> 100 µM (inactive)
O=C1c2cc3c(cc2[C@@H]2C(O)[C@H]4O[C@H]4C4CCN1C42)OCO3 (some centres undefined)	25.3 µM (inactive)	> 37.5 µM (inactive)	> 37.5 µM (inactive)	> 37.5 µM	> 37.5 µM (inactive)	> 37.5 µM (inactive)	> 37.5 µM (inactive)	> 37.5 µM (inactive)	> 37.5 µM (inactive)		> 37.5 µM (inactive)	> 37.5 µM (inactive)		> 37.5 µM (inactive)	> 37.5 µM (inactive)	> 37.5 µM (inactive)	> 37.5 µM (inactive)	> 37.5 µM (inactive)	> 37.5 µM (inactive)	
CCCCCCCC/C=C\CCCCCCCC(=O)O [OLEIC ACID]	118 µM (inactive)	> 500 µM (inactive)	> 434 µM (inactive)	177 µM	> 5 µM (inactive)	> 500 µM (inactive)	116 µM (inactive)	148 µM (inactive)	101 µM (inactive)	102 µM (inactive)	> 291 µM (inactive)	149 µM (inactive)	149 µM (inactive)	180 µM (inactive)	110 µM (inactive)	104 µM (inactive)	> 500 µM (inactive)	> 500 µM (inactive)	9.48 µM (inactive)	68.7 µM (inactive)
